According to patent US20260293900A1 (priority 2023, published 2026):

What was measured:
Phytophthora infestans = format: in vivo, Phytophthora infestans (on tomato leaf disks); details: 200 ppm; tomato leaf disks, preventative, inoculated 1 day after application; assessed 5-7 days after application
Plasmopara viticola = format: in vivo, Plasmopara viticola (on grape vine leaf disks); details: 200 ppm; grape vine leaf disks, preventative, inoculated 1 day after application; assessed 6-8 days after application
Pythium ultimum = assay: Pythium ultimum/Liquid Culture (Seedling Damping Off); format: cell-based; details: Globisporangium ultimum, read-out: control of Pythium ultimum compared to untreated control (inhibition of growth)

| Compound | control of Phytophthora infestans compared to untreated control (percent disease control) (Phytophthora infestans) | control of Plasmopara viticola compared to untreated control (percent disease control) (Plasmopara viticola) | inhibition at 20 ppm (Pythium ultimum) [%] |
| --- | --- | --- | --- |
| COCN(C(=O)c1ccn2ncc(-c3ccc(NC(=O)OC)nc3)c2c1)c1ccc(F)c(OC)c1 [Compound 1, methyl N-[5-[5-[(4-fluoro-3-methoxy-phenyl)-(methoxymethyl)carbamoyl]pyrazolo[1,5-a]pyridin-3-yl]-2-pyridyl]carbamate] | at least 80% | at least 80% | ≥ 80 |
| COC(=O)Nc1ccc(-c2cnn3ccc(C(=O)N(CC#N)c4ccc(Cl)c(OC)c4)cc23)cn1 [Compound 2, methyl N-[5-[5-[(4-chloro-3-methoxy-phenyl)-(cyanomethyl)carbamoyl]pyrazolo[1,5-a]pyridin-3-yl]-2-pyridyl]carbamate] | at least 80% |  | ≥ 80 |
| COC(=O)Nc1ccc(-c2cnn3ccc(C(=O)N(CC#N)c4ccc(F)c(OC)c4)cc23)cn1 [Compound 3, methyl N-[5-[5-[cyanomethyl-(4-fluoro-3-methoxy-phenyl)carbamoyl]pyrazolo[1,5-a]pyridin-3-yl]-2-pyridyl]carbamate] | at least 80% | at least 80% |  |
| COC(=O)Nc1ccc(-c2cnn3ccc(C(=O)N(C)c4ccc(F)c(OC)c4)cc23)cn1 [Compound 4, methyl N-[5-[5-[(4-fluoro-3-methoxy-phenyl)-methyl-carbamoyl]pyrazolo[1,5-a]pyridin-3-yl]-2-pyridyl]carbamate] | at least 80% | at least 80% | ≥ 80 |
| COC(=O)Nc1ccc(-c2cnn3ccc(C(=O)N(C)c4ccc(Cl)cc4)cc23)cc1 [Compound 5, methyl N-[4-[5-[(4-chlorophenyl)-methyl-carbamoyl]pyrazolo[1,5-a]pyridin-3-yl]phenyl]carbamate] |  |  | ≥ 80 |
| CC(=O)Nc1ccc(-c2cnn3ccc(C(=O)N(C)c4ccc(Cl)cc4)cc23)cc1 [Compound 6, 3-(4-acetamidophenyl)-N-(4-chlorophenyl)-N-methyl-pyrazolo[1,5-a]pyridine-5-carboxamide] |  |  | ≥ 80 |
